Some results are limits rather than exact numbers.

One may read the IC50 as the concentration that inhibits the measured activity by half.

T1 sequence (P10721 26-976 V560G/V654A): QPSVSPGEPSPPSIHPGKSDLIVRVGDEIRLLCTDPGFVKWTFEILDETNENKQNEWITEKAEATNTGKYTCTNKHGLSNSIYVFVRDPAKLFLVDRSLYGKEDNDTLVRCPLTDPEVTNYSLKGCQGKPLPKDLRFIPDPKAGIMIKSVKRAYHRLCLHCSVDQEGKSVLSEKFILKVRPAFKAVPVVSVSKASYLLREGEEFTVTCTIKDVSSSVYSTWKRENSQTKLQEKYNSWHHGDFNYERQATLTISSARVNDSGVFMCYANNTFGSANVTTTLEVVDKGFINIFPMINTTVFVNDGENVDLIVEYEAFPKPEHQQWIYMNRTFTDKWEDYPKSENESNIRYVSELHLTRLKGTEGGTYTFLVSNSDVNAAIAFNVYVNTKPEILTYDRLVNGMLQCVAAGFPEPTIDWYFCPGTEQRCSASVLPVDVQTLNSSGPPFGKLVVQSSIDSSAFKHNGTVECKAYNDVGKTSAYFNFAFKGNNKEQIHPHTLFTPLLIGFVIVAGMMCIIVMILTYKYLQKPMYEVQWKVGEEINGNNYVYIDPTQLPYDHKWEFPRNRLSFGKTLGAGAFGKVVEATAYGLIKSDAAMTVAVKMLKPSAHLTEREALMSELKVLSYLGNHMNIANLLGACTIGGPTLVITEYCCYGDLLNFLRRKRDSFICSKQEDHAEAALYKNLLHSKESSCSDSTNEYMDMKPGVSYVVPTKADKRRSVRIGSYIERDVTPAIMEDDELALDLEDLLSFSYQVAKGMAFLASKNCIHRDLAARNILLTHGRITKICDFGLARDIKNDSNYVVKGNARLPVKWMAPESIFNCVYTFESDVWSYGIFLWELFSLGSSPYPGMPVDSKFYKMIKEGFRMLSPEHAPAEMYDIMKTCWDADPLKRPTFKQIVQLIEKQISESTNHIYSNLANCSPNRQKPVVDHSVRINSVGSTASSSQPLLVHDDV

This assay concerns the target T1, c-kit autophosphorylation (Phospho c-Kit Tyr721) in HMC 1.1 (exon 11/13) cells, V654A (Homo sapiens, UniProt P10721, V560G/V654A).
T1 construct: endogenous in cells; host or cells: HMC 1.1 (exon 11/13) cells
The assay can be described thus: pKIT Meso Scale Discovery (MSD) assay, inhibition of autophosphorylation of KIT, HMC1.1_V654A. The format is cell-based. To be noted: Table 1, cell line not named for Table 1, b1056 names pKIT HMC1.1_V654A, read-out: Code (IC50 for inhibition of autophosphorylation of KIT, pKIT MSD assay). In short, it runs like this:
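HMC1.1 cells were serum-starved for 4 h in serum-free, iron-free, phenol red-free IMDM, then treated with compound in dose-response for 90 min at 37 °C. Staurosporine and DMSO served as controls. Lysates were analysed by MSD electrochemiluminescence immunoassay for phospho-c-Kit Tyr721, and % inhibition of autophosphorylation was derived.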
For the compound `CC(CF)Oc1cc(Nc2cc(N)nc(C(F)F)n2)ncc1-c1cnn(CC(C)(C)O)c1` (stereo not shown) [Compound 190, 1-(4-(6-((6-amino-2-(difluoromethyl)pyrimidin-4-yl)amino)-4-((1-fluoropropan-2-yl)oxy)pyridin-3-yl)-1H-pyrazol-1-yl)-2-methylpropan-2-ol], the IC50 is less than 10 nM.

Turning to `CCCNC(=O)c1cnc(Nc2cc(N)nc(C(F)F)n2)cc1NC1CC1` [Compound 62, 6-((6-amino-2-(difluoromethyl)pyrimidin-4-yl)amino)-4-(cyclopropylamino)-N-propylnicotinamide], the IC50 lay in the range of 10 to 40 nM.

On to `CC(C)Nc1cc(Nc2cc(N)nc(C(F)F)n2)ncc1C(=O)NCc1ccccn1` [Compound 158, 6-((6-amino-2-(difluoromethyl)pyrimidin-4-yl)amino)-4-(isopropylamino)-N-(pyridin-2-ylmethyl)nicotinamide], for which the IC50 is less than 10 nM.

For the compound `Nc1cc(Nc2cc(NC3CC3)c(C(=O)NCc3ncco3)cn2)nc(C(F)F)n1` [Compound 135, 6-((6-amino-2-(difluoromethyl)pyrimidin-4-yl)amino)-4-(cyclopropylamino)-N-(oxazol-2-ylmethyl)nicotinamide], the 50% inhibitory concentration (IC50) was less than 10 nM.

In the case of `Nc1cc(Nc2cc(OC(F)(F)F)c(-c3cnn(C4CC4)c3)cn2)nc(C(F)F)n1` [Compound 154, N4-(5-(1-cyclopropyl-1H-pyrazol-4-yl)-4-(trifluoromethoxy)pyridin-2-yl)-2-(difluoromethyl)pyrimidine-4,6-diamine], the IC50 is less than 10 nM.

On to `CCOc1cc(Nc2cc(N)nc(C(F)F)n2)ncc1-c1cnn(C)c1` [Compound 34, 2-(difluoromethyl)-N4-(4-ethoxy-5-(1-methyl-1H-pyrazol-4-yl)pyridin-2-yl)pyrimidine-4,6-diamine], for which the IC50 was less than 10 nM.

Take `CNC(=O)c1cnc(Nc2cc(N)nc(CF)n2)cc1NC1COC1` [Compound 19, 6-((6-amino-2-(fluoromethyl)pyrimidin-4-yl)amino)-N-methyl-4-(oxetan-3-ylamino)nicotinamide]: the IC50 is more than 40 nM.

On to `COc1cc(Nc2cc(N)nc(C(F)F)n2)ncc1-c1cnn(CCN(C)CC(F)(F)F)c1` [Compound 199, 2-(difluoromethyl)-N4-(4-methoxy-5-(1-(2-(methyl(2,2,2-trifluoroethyl)amino)ethyl)-1H-pyrazol-4-yl)pyridin-2-yl)pyrimidine-4,6-diamine], for which the concentration for half-maximal inhibition (IC50) is less than 10 nM.

For `CC(C)Oc1cc(Nc2cc(N)nc([C@H](C)F)n2)ncc1-c1cnn(C2COC2)c1` [Compound 129, (S)-2-(1-fluoroethyl)-N4-(4-isopropoxy-5-(1-(oxetan-3-yl)-1H-pyrazol-4-yl)pyridin-2-yl)pyrimidine-4,6-diamine], the IC50 was less than 10 nM.

Take `CNC(=O)c1cnc(Nc2cc(N)nc(C(F)F)n2)cc1NC` [Compound 4, 6-((6-amino-2-(difluoromethyl)pyrimidin-4-yl)amino)-N-methyl-4-(methylamino)nicotinamide]: the IC50 was less than 10 nM.

`COCCn1cc(-c2cnc(Nc3cc(N)nc(C(F)F)n3)cc2OC)cn1` [Compound 84, 2-(difluoromethyl)-N4-(4-methoxy-5-(1-(2-methoxyethyl)-1H-pyrazol-4-yl)pyridin-2-yl)pyrimidine-4,6-diamine]: the 50% inhibitory concentration (IC50) is less than 10 nM.

For `CNC(C)Cn1cc(-c2cnc(Nc3cc(N)nc(C(F)F)n3)cc2OC2CC2)cn1` (stereo not shown) [Compound 170, N4-(4-cyclopropoxy-5-(1-(2-(methylamino)propyl)-1H-pyrazol-4-yl)pyridin-2-yl)-2-(difluoromethyl)pyrimidine-4,6-diamine], the IC50 was less than 10 nM.

As for `COc1cc(Nc2cc(N)nc(CF)n2)ncc1-c1cnn(C2CNC2)c1` [Compound 50, N4-(5-(1-(azetidin-3-yl)-1H-pyrazol-4-yl)-4-methoxypyridin-2-yl)-2-(fluoromethyl)pyrimidine-4,6-diamine], the IC50 was more than 40 nM.

In the case of `Nc1cc(Nc2cc(OC3CC3)c(-c3cnn(CCN4CCC4)c3)cn2)nc(C(F)F)n1` [Compound 182, N4-(5-(1-(2-(azetidin-1-yl)ethyl)-1H-pyrazol-4-yl)-4-cyclopropoxypyridin-2-yl)-2-(difluoromethyl)pyrimidine-4,6-diamine], the IC50 is less than 10 nM.

As for `Cn1cc(-c2cnc(Nc3cc(N)nc(C(F)F)n3)cc2OC2CC2)cn1` [Compound 53, N4-(4-cyclopropoxy-5-(1-methyl-1H-pyrazol-4-yl)pyridin-2-yl)-2-(difluoromethyl)pyrimidine-4,6-diamine], the IC50 was less than 10 nM.

As to `Nc1cc(Nc2cc(NC3CC3)c(C(=O)NC3CC3)cn2)nc(C(F)F)n1` [Compound 57, 6-((6-amino-2-(difluoromethyl)pyrimidin-4-yl)amino)-N-cyclopropyl-4-(cyclopropylamino)nicotinamide], the IC50 is less than 10 nM.

For the compound `CNC(=O)c1cnc(Nc2cc(N)nc(CF)n2)cc1NC(C)CF` (single isomer, unassigned) [Compound 28, (R)-6-((6-amino-2-(fluoromethyl)pyrimidin-4-yl)amino)-4-((1-fluoropropan-2-yl)amino)-N-methylnicotinamide or (S)-6-((6-amino-2-(fluoromethyl)pyrimidin-4-yl)amino)-4-((1-fluoropropan-2-yl)amino)-N-methylnicotinamide], the IC50 is more than 40 nM.

In the case of `Nc1cc(Nc2cc(OC3CC3)c(-c3cnn(C4COC4)c3)cn2)nc(C(F)F)n1` [Compound 133, N4-(4-cyclopropoxy-5-(1-(oxetan-3-yl)-1H-pyrazol-4-yl)pyridin-2-yl)-2-(difluoromethyl)pyrimidine-4,6-diamine], the IC50 was less than 10 nM.

For the compound `COc1cc(Nc2cc(N)nc(C(F)F)n2)ncc1-c1cnn(CC(C)N(C)C)c1` (stereo not shown) [Compound 150, 2-(difluoromethyl)-N4-(5-(1-(2-(dimethylamino)propyl)-1H-pyrazol-4-yl)-4-methoxypyridin-2-yl)pyrimidine-4,6-diamine], the IC50 was less than 10 nM.

As for `CNC(=O)c1cnc(Nc2cc(N)nc([C@H](C)F)n2)cc1NC(C)C` [Compound 21, (S)-6-((6-amino-2-(1-fluoroethyl)pyrimidin-4-yl)amino)-4-(isopropylamino)-N-methylnicotinamide], the IC50 was less than 10 nM.

Consider `COc1cc(Nc2cc(N)nc(C(F)F)n2)ncc1-c1cnn([C@@H]2CCOC2)c1` (single isomer, unassigned) [Compound 110, (R)-2-(difluoromethyl)-N4-(4-methoxy-5-(1-(tetrahydrofuran-3-yl)-1H-pyrazol-4-yl)pyridin-2-yl)pyrimidine-4,6-diamine or (S)-2-(difluoromethyl)-N4-(4-methoxy-5-(1-(tetrahydrofuran-3-yl)-1H-pyrazol-4-yl)pyridin-2-yl)pyrimidine-4,6-diamine], for which the half-maximal inhibitory concentration (IC50) was less than 10 nM.

For `CNC(=O)c1cnc(Nc2cc(N)nc(C(F)F)n2)cc1NCC(C)C` [Compound 43, 6-((6-amino-2-(difluoromethyl)pyrimidin-4-yl)amino)-4-(isobutylamino)-N-methylnicotinamide], the IC50 was less than 10 nM.

As for `CNC(=O)c1cnc(Nc2cc(N)nc(CF)n2)cc1N[C@@H]1CCOC1` [Compound 35, (R)-6-((6-amino-2-(fluoromethyl)pyrimidin-4-yl)amino)-N-methyl-4-((tetrahydrofuran-3-yl)amino)nicotinamide], the IC50 is more than 40 nM.

Take “6-((6-amino-4-(difluoromethyl)pyridin-2-yl)amino)-4-(((1R,2S)-2-fluorocyclopropyl)amino)-N-methylnicotinamide [Compound 44]”: the IC50 fell in the range of 10 to 40 nM.

With `CN(C)CCn1cc(-c2cnc(Nc3cc(N)nc(C(F)F)n3)cc2OC2CC2)cn1` [Compound 171, N4-(4-cyclopropoxy-5-(1-(2-(dimethylamino)ethyl)-1H-pyrazol-4-yl)pyridin-2-yl)-2-(difluoromethyl)pyrimidine-4,6-diamine], the IC50 was less than 10 nM.

Consider `COc1cc(Nc2cc(N)nc(C(F)F)n2)ncc1-c1cnn(C(F)F)c1` [Compound 70, 2-(difluoromethyl)-N4-(5-(1-(difluoromethyl)-1H-pyrazol-4-yl)-4-methoxypyridin-2-yl)pyrimidine-4,6-diamine], for which the IC50 is less than 10 nM.

In the case of `CNC(=O)c1cnc(Nc2cc(N)nc(C(F)F)n2)cc1NCc1ccccc1` [Compound 92, 6-((6-amino-2-(difluoromethyl)pyrimidin-4-yl)amino)-4-(benzylamino)-N-methylnicotinamide], the IC50 was 10 to 40 nM.

For `CNc1cc(Nc2cc(N)nc(C(F)F)n2)ncc1C(=O)NC1CC1` [Compound 24, 6-((6-amino-2-(difluoromethyl)pyrimidin-4-yl)amino)-N-cyclopropyl-4-(methylamino)nicotinamide], the IC50 was less than 10 nM.

Regarding `C[C@H](CF)Nc1cc(Nc2cc(N)nc(C(F)F)n2)ncc1C(=O)NC12CC(CO)(C1)C2` [Compound 189, (R)-6-((6-amino-2-(difluoromethyl)pyrimidin-4-yl)amino)-4-((1-fluoropropan-2-yl)amino)-N-(3-(hydroxymethyl)bicyclo[1.1.1]pentan-1-yl)nicotinamide], the IC50 fell in the range of 10 to 40 nM.

Consider “6-((6-amino-2-(difluoromethyl)pyrimidin-4-yl)amino)-N-methyl-4-((4-methyltetrahydro-2H-pyran-4-yl)amino)nicotinamide [Compound 125]”, for which the IC50 was less than 10 nM.

Consider `CN1CC(n2cc(-c3cnc(Nc4cc(N)nc(C(F)F)n4)cc3OC[C@H]3CCCO3)cn2)C1` [Compound 202, (R)-2-(difluoromethyl)-N4-(5-(1-(1-methylazetidin-3-yl)-1H-pyrazol-4-yl)-4-((tetrahydrofuran-2-yl)methoxy)pyridin-2-yl)pyrimidine-4,6-diamine], for which the IC50 lay within 10 to 40 nM.

Values taken from US20250270190A1, “KIT INHIBITORS” (BLUEPRINT MEDICINES CORPORATION, priority 2022, published 2025).
